Laboratory results published in patent US10870652B2, “Compounds and methods for modulating bruton's tyrosine kinase” (CORVUS PHARMACEUTICALS, INC., priority 2016, dated 2020).

Tests used:
Format in all cases: biochemical
RLK = target: T1, RLK (Homo sapiens, UniProt P42681); test: RLK IC50 kinase inhibition assay
T1 sequence (P42681 1-527): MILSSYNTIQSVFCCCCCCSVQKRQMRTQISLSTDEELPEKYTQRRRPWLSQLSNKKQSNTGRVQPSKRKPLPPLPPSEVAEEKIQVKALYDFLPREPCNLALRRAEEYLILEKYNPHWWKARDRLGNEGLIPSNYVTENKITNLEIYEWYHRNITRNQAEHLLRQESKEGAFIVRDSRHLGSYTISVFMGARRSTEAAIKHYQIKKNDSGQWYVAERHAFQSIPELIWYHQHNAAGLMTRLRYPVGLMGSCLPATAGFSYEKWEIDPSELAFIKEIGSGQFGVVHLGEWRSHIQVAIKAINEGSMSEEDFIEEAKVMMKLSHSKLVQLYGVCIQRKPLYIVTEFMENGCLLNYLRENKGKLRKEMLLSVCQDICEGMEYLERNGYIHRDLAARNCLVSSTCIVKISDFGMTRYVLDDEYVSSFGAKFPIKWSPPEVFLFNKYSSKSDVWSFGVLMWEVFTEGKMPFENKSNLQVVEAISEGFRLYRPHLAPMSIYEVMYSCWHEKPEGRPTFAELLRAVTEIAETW

BTK = BTK (Homo sapiens, UniProt Q06187); test: BTK IC50 kinase inhibition assay
ITK = target: T2, ITK (Homo sapiens, UniProt Q08881); test: ITK IC50 kinase inhibition assay
T2 sequence (Q08881 1-620): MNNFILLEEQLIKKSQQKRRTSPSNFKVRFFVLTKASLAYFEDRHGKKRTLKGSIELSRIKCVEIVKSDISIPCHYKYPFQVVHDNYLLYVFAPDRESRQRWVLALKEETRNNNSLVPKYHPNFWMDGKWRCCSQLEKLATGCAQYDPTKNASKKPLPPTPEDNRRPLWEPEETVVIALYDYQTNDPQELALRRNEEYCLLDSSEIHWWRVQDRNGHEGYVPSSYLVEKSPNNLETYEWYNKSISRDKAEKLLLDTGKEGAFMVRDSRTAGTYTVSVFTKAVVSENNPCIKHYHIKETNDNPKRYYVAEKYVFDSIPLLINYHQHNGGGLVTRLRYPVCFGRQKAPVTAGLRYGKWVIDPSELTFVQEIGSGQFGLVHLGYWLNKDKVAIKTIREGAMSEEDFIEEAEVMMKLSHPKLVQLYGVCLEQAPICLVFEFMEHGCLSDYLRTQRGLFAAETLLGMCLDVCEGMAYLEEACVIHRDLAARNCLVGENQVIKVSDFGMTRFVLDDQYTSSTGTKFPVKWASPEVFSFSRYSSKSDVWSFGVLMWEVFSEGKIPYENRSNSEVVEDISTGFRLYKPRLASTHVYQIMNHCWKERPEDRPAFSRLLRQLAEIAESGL

JAK3 = target: T3, JAK3 (Homo sapiens, UniProt P52333); test: JAK3 IC50 kinase inhibition assay
T3 sequence (P52333 1-1124): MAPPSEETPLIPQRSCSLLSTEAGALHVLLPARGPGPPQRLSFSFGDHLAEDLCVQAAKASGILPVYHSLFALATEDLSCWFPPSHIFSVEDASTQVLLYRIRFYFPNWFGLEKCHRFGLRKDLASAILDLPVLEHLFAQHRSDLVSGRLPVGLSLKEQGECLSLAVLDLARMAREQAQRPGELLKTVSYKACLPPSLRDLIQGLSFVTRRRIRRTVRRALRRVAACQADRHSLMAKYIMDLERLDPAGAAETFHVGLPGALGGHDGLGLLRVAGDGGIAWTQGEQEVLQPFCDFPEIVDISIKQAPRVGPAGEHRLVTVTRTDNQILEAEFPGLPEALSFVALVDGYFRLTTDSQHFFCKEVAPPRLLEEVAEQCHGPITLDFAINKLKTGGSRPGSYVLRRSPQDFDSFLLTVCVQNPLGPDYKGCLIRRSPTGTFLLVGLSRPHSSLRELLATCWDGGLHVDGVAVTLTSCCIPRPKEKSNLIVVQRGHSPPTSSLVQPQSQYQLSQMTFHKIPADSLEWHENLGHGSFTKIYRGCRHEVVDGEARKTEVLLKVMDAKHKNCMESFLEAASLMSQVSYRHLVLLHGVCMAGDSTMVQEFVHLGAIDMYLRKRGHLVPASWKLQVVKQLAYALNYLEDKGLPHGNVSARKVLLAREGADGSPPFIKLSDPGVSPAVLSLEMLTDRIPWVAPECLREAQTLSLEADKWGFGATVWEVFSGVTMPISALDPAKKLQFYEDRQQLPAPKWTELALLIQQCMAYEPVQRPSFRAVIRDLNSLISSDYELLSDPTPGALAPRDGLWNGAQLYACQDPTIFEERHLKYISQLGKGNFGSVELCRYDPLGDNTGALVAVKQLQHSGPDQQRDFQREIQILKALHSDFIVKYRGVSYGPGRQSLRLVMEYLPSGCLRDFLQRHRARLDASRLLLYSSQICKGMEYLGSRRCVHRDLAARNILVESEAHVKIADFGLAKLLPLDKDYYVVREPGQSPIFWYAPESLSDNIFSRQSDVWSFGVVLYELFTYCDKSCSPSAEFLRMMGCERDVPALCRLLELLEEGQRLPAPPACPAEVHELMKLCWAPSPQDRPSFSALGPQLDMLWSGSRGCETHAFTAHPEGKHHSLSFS

TXK = target: T4, TXK (Homo sapiens, UniProt P42681); test: TXK IC50 kinase inhibition assay
T4 sequence (P42681 1-527): T1 sequence (P42681 1-527)

Chain of BTK (Q06187 whole entry): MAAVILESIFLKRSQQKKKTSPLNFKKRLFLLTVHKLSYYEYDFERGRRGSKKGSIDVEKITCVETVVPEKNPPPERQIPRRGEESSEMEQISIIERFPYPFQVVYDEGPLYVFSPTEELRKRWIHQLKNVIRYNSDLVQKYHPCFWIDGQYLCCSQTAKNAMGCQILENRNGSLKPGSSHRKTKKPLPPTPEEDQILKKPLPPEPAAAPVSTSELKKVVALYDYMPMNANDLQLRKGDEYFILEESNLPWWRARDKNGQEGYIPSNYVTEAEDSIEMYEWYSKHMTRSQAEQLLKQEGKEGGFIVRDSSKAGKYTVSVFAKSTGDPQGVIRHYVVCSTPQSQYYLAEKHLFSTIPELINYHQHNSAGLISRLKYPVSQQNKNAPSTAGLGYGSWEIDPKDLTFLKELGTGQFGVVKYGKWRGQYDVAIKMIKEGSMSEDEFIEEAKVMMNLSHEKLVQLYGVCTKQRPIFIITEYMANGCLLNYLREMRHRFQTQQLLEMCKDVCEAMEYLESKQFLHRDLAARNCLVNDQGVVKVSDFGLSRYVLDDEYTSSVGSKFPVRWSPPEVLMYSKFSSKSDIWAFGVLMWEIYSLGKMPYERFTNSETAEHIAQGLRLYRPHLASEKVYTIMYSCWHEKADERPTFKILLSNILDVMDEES

IC50 (RLK) [nM]	IC50 (BTK) [nM]	IC50 (ITK) [nM]	IC50 (JAK3) [nM]	IC50 (TXK) [nM]	SMILES
100 to 500	< 100	> 500	> 500	–	C=CC(=O)N1CCC[C@@H](n2nc(-c3ccc(Oc4ccccc4)cc3)c3cnc(N)nc32)C1 [Compound A11]
–	< 100	> 500	> 500	< 100	CN1CCN(CC#CC(=O)N2CC3(CC(n4nc(-c5ccc(Oc6ccccc6)cc5)c5cncnc54)C3)C2)CC1 [Compound A76, 4-(4-Methylpiperazin-1-yl)-1-(6-(3-(4-phenoxyphenyl)-1H-pyrazolo[3,4-d]pyrimidin-1-yl)-2-azaspiro[3.3]heptan-2-yl)but-2-yn-1-one]
–	< 100	> 500	> 500	< 100	O=C(C#CCN1CCCCC1)N1CC2(CC(n3nc(-c4ccc(Oc5ccccc5)cc4)c4cncnc43)C2)C1 [Compound A77, 1-(6-(3-(4-Phenoxyphenyl)-1H-pyrazolo[3,4-d]pyrimidin-1-yl)-2-azaspiro[3.3]heptan-2-yl)-4-(piperidin-1-yl)but-2-yn-1-one]
–	100 to 500	> 500	> 500	> 500	O=C(C#CC1CC1)N1CC2(CC(n3nc(-c4ccc(Oc5ccccc5)cc4)c4cncnc43)C2)C1 [Compound A78, 3-Cyclopropyl-1-(6-(3-(4-phenoxyphenyl)-1H-pyrazolo[3,4-d]pyrimidin-1-yl)-2-azaspiro[3.3]heptan-2-yl)prop-2-yn-1-one]
–	< 100	> 500	> 500	< 100	COCC#CC(=O)N1CC2(CC(n3nc(-c4ccc(Oc5ccccc5)cc4)c4cncnc43)C2)C1 [Compound A79, 4-Methoxy-1-(6-(3-(4-phenoxyphenyl)-1H-pyrazolo[3,4-d]pyrimidin-1-yl)-2-azaspiro[3.3]heptan-2-yl)but-2-yn-1-one]
